Assay results: paper PMC8708390, “Fatty Acid Modification of the Anticancer Peptide LVTX-9 to Enhance Its Cytotoxicity against Malignant Melanoma Cells” (Toxins, 2021)
Where a SMILES comes first, the peptide text is derived from it. The star is where a group is joined. Arachidoyl = CCCCCCCCCCCCCCCCCCCC(=O)*; Stearoyl = CCCCCCCCCCCCCCCCCC(=O)*; Palmitoyl = CCCCCCCCCCCCCCCC(=O)*; Myristoyl = CCCCCCCCCCCCCC(=O)*; Lauroyl = CCCCCCCCCCCC(=O)*

Experiments:
[1] = RP-HPLC retention time as measure of hydrophobicity; assay type: physicochemical; conditions: chromatographic, Vydac C18 300 Å 4.6 × 250 mm, 1.0 mL/min, gradient 30-100% acetonitrile/0.1% TFA, 215 nm, column 25 ± 5 °C; maximum height of peak
Method: Peptides were synthesized using the Fmoc SPPS methods. Briefly, the peptide LVTX-9 (AC-[…]-amide) was prepared on Rink Amide AM resin at a 0.2 mmol scale. A 4-fold excess of the Fmoc-protected amino acids was coupled with the Rink Amide AM resin using HCTU and HOBT as the activating agents in 5% NMM/DMF. After the synthesis of LVTX-9, the N-terminal Fmoc group was removed using 20% piperidine. As in the previous steps, a series of fatty acids (C12-C20) was activated in HCTU and HOBT using 5% NMM/DMF, and coupled to peptidyl resin for 2 h. Peptides were cleaved using trifluoroacetic acid (TFA)/thioanisole (TIS)/anisole (95:3:2 (v/v)) for 2.5 h, and the collected lysate was precipitated in cold diethyl ether three times. The precipitate was air-dried naturally. Next, the obtained crude products were purified using RP-HPLC (C18, 4.6 mm × 250 mm) on the basis of a 0.1% TFA/acetonitrile gradient from 30% to 100% in 46 min. Then, we collected the eluted peptides and determined the molecular mass using MALDI-TOF MS (AB, SCIEX, Waltham, MA, USA).
Figure 2 Purification and identification of five lipopeptides using RP-HPLC and MALDL-TOF MS: The purification of (A) LVTX-9-C12, (B) LVTX-9-C14, (C) LVTX-9-C16, (D) LVTX-9-C18, and (E) LVTX-9-C20 was performed using RP-HPLC (column, Vydac, C18, 300 Å, 4.6 × 250 mm). The lipopeptides were separated at a flow rate of 1.0 mL/min under a gradient of 30–100% acetonitrile/0.1% TFA. The elution of lipopeptides was monitored at 215 nm. Identification of (F) LVTX-9-C12, (G) LVTX-9-C14, (H) LVTX-9-C16, (I) LVTX-9-C18, and (J) LVTX-9-C20 by MALDI-TOF MS, respectively. The red star (*) represents the target peak. […]
Table S1. Purification gradient of peptides.
Time (min) Flow Rate (mL/min) A% B%
Wavelength: 215 nm/280 nm, column temperature: 25 ± 5 ℃, A: ddH2O (0.1% TFA), B: acetonitrile
(1 picture or pasted object on this page, not shown here)

B16-F10 tumor spheroids = assay: Toxicity in 3D tumor spheroids; assay type: cell-based, mouse; conditions: 20 μM, 3 days
Method: To further study the toxicity of LVTX-9 and LVTX-9-C18 in vitro, B16-F10 tumor spheroids, as 3D tumor models, were cultured according to protocols in the literature. Briefly, B16-F10 cells were seeded into an ultra-low attachment, 96-well, round-bottom plate (Corning) and cultured at 37 °C for 3–4 days. Then, the B16-F10 tumor spheroids were treated with 50 or 25 μM of LVTX-9 and 20 or 10 μM of LVTX-9-C18 in the RPMI-1640 supplied with 10% serum for 3 days. Subsequently, images were taken on days 0 and 3, and the cell viability was measured using a CellTiter-Glo 3D Cell Viability Assay (G9683).

B16-F10 cells [2] = assay: Scanning electron microscopy of cell membrane; assay type: cell-based, mouse; conditions: 5 μM, 24 h
Method: The morphologic changes of the cell membrane of B16-F10 cells treated with peptides were observed by SEM [14]. The cells were seeded on coverslips and placed into a six-well plate, then treated with LVTX-9 (50 μM) and LVTX-9-C18 (5 μM) for 24 h. After incubation, the B16-F10 cells were washed with sterile PBS gently three times and fixed with 2 mL of 2.5% glutaraldehyde solution in each well for 4 h at room temperature. Then, the fixed cells were dehydrated with a series of ethanol concentrations. We dried the samples with a Critical Point Dryer and coated them with gold plating before observation. A scanning electron microscope (Hitachi Su8010, Tokyo, Japan) was used to examine the prepared samples.

[3] = Circular dichroism secondary structure; assay type: physicochemical; conditions: 100 µM, 25 °C, 180-280 nm
Method: (§1) Dynamic light scattering (DLS) of Zetasizer Nano ZSP (Malvern Instruments, Malvern, UK) apparatus was used to determine the hydrodynamic size and zeta potential of LVTX-9 and LVTX-9-C18. The peptides concentrations were diluted to 100 µM with ultrapure water with a final volume of 1 mL. The procedure ran at 25 °C, with each experiment repeated three times. The secondary structures of LVTX-9 and LVTX-9-C18 were determined to be in line with the previous protocol. The peptide concentrations were then diluted to 100 µM with ultrapure water and 100 mM of SDS was added in a final volume of 250 μL. The procedure was carried out at 25 °C. CD spectra were recorded between 180 nm and 280 nm on a Jasco J-815 CD spectrometer.

[4] = Dynamic light scattering (hydrodynamic size, PDI, zeta potential); assay type: physicochemical; conditions: 100 µM in ultrapure water, 25 °C, repeated three times
Method: as §1

B16-F10 cells [5] = assay: LDH leakage assay; assay type: cell-based, mouse; conditions: 12.5 μM, 24 h, absorbance 490 nm, n = 3
Method: At first, the B16-F10 cells were cultured in 96-well plates for 24 h at approximately 2 × 10^3 cells/well. Subsequently, the cells were treated for 24 h with LVTX-9 or LVTX-9-C18 with a series of concentration gradients. LDH leakage detection was detected using an LDH Cytotoxicity Assay Kit according to the manufacturer’s instructions (Beyotime, Shanghai, China. C0017). The absorption was measured using an Absorbance Microplate Reader (BioTek Instruments) at 490 nm. The LDH release (%) of peptides was calculated by GraphPad prism 5.0.

B16-F10 cells [6] = assay: Trypan blue staining; assay type: cell-based, mouse; conditions: 5 μM, 24 h, 0.04% trypan blue 4 min
Method: B16-F10 cells were seeded into a 48-well plate (2 × 10^3 cells/well) for 24 h and treated with LVTX-9 (50 μM) and LVTX-9-C18 (5 μM) for 24 h. The cells were washed with PBS gently and stained with 0.04% Trypan blue for 4 min. Dead cells were stained blue.

B16-F10 cells [7] = assay: Colony formation assay; assay type: cell-based, mouse; conditions: 1 μM, 7 days, crystal violet, mean ± SD, n = 3, control group 51 ± 12.0, p = 0.0198 vs control
Method: To detect the proliferation of B16-F10 cells treated with LVTX-9 and LVTX-9-C18 at low concentrations, digested cells were counted using a Cellometer K2 and seeded into a 12-well plate with approximately 100 cells per well. After 36 h, cells were treated with LVTX-9 (10 μM) and LVTX-9-C18 (1 μM), then incubated for 7 days at 37 °C in a humidified 5% CO2 atmosphere. Visible colonies were stained with 0.5% crystal violet and photographically recorded. The colony formation rates were calculated, and curves were manufactured by GraphPad prism 5.0.

B16-F10 cells [8] = assay: CCK-8 cell viability assay, B16-F10 cells; assay type: cell-based, mouse; conditions: 1 μM
Method: Mouse skin melanoma cells (B16-F10) were cultured in RPMI-1640 (Gibco), and mouse fibroblast cells (L-929), human lung carcinoma cells (A549), mouse breast cells (4T1), human hepatocarcinoma cells (HepG2), and human cervical carcinoma cells (Hela) were cultured in Dulbecco’s Modified Eagle Medium (DMEM, Gibco). All culture medium contained 10% fetal bovine serum (serum, Gibco), 100 U/mL of penicillin, and […] of streptomycin at 37 °C with 5% CO2.
Cell viability was quantified using a CCK-8 assay. At first, cells were seeded into a 96-well plate at approximately 2 × 10^3 cells/well. The following day, we created a 2-fold dilution series of each peptide using fresh medium (with or without 10% serum) for the treated cells, and cell viability was detected at 450 nm via a CCK-8 assay using an Absorbance Microplate Reader (BioTek Instruments, Winooski, VT, USA) following 24 h of drug incubation. The activity curves and IC50 values of the peptides were visualized using GraphPad prism 5.0.

SMILES: CCCCCCCCCCCC(=O)N[C@@H](C)C(=O)N[C@@H](CO)C(=O)N[C@H](C(=O)NCC(=O)N[C@@H](C)C(=O)N[C@@H](CC(C)C)C(=O)N[C@H](C(=O)N[C@@H](CCC(N)=O)C(=O)N[C@@H](CCCCN)C(=O)N[C@@H](C)C(=O)N[C@H](C(=O)N[C@@H](C)C(=O)N[C@@H](CC(C)C)C(=O)N[C@H](C(=O)N[C@@H](CCCCN)C(=O)N[C@@H](C)C(=O)N[C@@H](CCCCN)C(=O)N[C@@H](C)C(=O)N[C@@H](C)C(N)=O)[C@@H](C)CC)[C@@H](C)CC)[C@@H](C)CC)[C@@H](C)CC [LVTX-9-C12] (Lauroyl-ASIGALIQKAIALIKAKAA-NH2)
- TR (retention time, RP-HPLC; indicates the hydrophobicity of the peptides) [1]: 36.52 min

SMILES: CCCCCCCCCCCCCC(=O)N[C@@H](C)C(=O)N[C@@H](CO)C(=O)N[C@H](C(=O)NCC(=O)N[C@@H](C)C(=O)N[C@@H](CC(C)C)C(=O)N[C@H](C(=O)N[C@@H](CCC(N)=O)C(=O)N[C@@H](CCCCN)C(=O)N[C@@H](C)C(=O)N[C@H](C(=O)N[C@@H](C)C(=O)N[C@@H](CC(C)C)C(=O)N[C@H](C(=O)N[C@@H](CCCCN)C(=O)N[C@@H](C)C(=O)N[C@@H](CCCCN)C(=O)N[C@@H](C)C(=O)N[C@@H](C)C(N)=O)[C@@H](C)CC)[C@@H](C)CC)[C@@H](C)CC)[C@@H](C)CC [LVTX-9-C14] (Myristoyl-ASIGALIQKAIALIKAKAA-NH2)
- TR (retention time, RP-HPLC; indicates the hydrophobicity of the peptides) [1]: 36.15 min

SMILES: CCCCCCCCCCCCCCCC(=O)N[C@@H](C)C(=O)N[C@@H](CO)C(=O)N[C@H](C(=O)NCC(=O)N[C@@H](C)C(=O)N[C@@H](CC(C)C)C(=O)N[C@H](C(=O)N[C@@H](CCC(N)=O)C(=O)N[C@@H](CCCCN)C(=O)N[C@@H](C)C(=O)N[C@H](C(=O)N[C@@H](C)C(=O)N[C@@H](CC(C)C)C(=O)N[C@H](C(=O)N[C@@H](CCCCN)C(=O)N[C@@H](C)C(=O)N[C@@H](CCCCN)C(=O)N[C@@H](C)C(=O)N[C@@H](C)C(N)=O)[C@@H](C)CC)[C@@H](C)CC)[C@@H](C)CC)[C@@H](C)CC [LVTX-9-C16] (Palmitoyl-ASIGALIQKAIALIKAKAA-NH2)
- TR (retention time, RP-HPLC; indicates the hydrophobicity of the peptides) [1]: 40.21 min

SMILES: CCCCCCCCCCCCCCCCCC(=O)N[C@@H](C)C(=O)N[C@@H](CO)C(=O)N[C@H](C(=O)NCC(=O)N[C@@H](C)C(=O)N[C@@H](CC(C)C)C(=O)N[C@H](C(=O)N[C@@H](CCC(N)=O)C(=O)N[C@@H](CCCCN)C(=O)N[C@@H](C)C(=O)N[C@H](C(=O)N[C@@H](C)C(=O)N[C@@H](CC(C)C)C(=O)N[C@H](C(=O)N[C@@H](CCCCN)C(=O)N[C@@H](C)C(=O)N[C@@H](CCCCN)C(=O)N[C@@H](C)C(=O)N[C@@H](C)C(N)=O)[C@@H](C)CC)[C@@H](C)CC)[C@@H](C)CC)[C@@H](C)CC [LVTX-9-C18] (Stearoyl-ASIGALIQKAIALIKAKAA-NH2)
- cell viability of B16-F10 tumor spheroids at 20 μM (B16-F10 tumor spheroids; CellTiter-Glo 3D Cell Viability Assay, n = 4, p < 0.0001): notably reduced the cell viability
- growth (volume) of B16-F10 tumor spheroids at 20 μM (B16-F10 tumor spheroids; RPMI-1640 with 10% serum, p = 0.0072): significantly suppressed
- cell membrane morphology by SEM at 5 μM (B16-F10 cells [2]): totally disorganized or even absent
- secondary structure (CD) in 100 mM of SDS ([3]; 100 mM SDS): α-helical conformation
- secondary structure (CD) in ultrapure water ([3]; ultrapure water): α-helical conformation
- PDI (hydrodynamic size, DLS) [4]: 0.64 ± 0.1369
- zeta potential ([4]; p = 0.0084): significantly higher than that of LVTX-9
- LDH release at 12.5 μM (B16-F10 cells [5]): ~ 40%
- trypan blue staining at 5 μM (B16-F10 cells [6]): stained blue
- colony number at 1 μM (B16-F10 cells [7]): 26 ± 2.9
- cytotoxic effect on B16-F10 cells at 1 μM (B16-F10 cells [8]): no significant cytotoxic effect
- TR (retention time, RP-HPLC; indicates the hydrophobicity of the peptides) [1]: 41.89 min

SMILES: CCCCCCCCCCCCCCCCCCCC(=O)N[C@@H](C)C(=O)N[C@@H](CO)C(=O)N[C@H](C(=O)NCC(=O)N[C@@H](C)C(=O)N[C@@H](CC(C)C)C(=O)N[C@H](C(=O)N[C@@H](CCC(N)=O)C(=O)N[C@@H](CCCCN)C(=O)N[C@@H](C)C(=O)N[C@H](C(=O)N[C@@H](C)C(=O)N[C@@H](CC(C)C)C(=O)N[C@H](C(=O)N[C@@H](CCCCN)C(=O)N[C@@H](C)C(=O)N[C@@H](CCCCN)C(=O)N[C@@H](C)C(=O)N[C@@H](C)C(N)=O)[C@@H](C)CC)[C@@H](C)CC)[C@@H](C)CC)[C@@H](C)CC [LVTX-9-C20] (Arachidoyl-ASIGALIQKAIALIKAKAA-NH2)
- TR (retention time, RP-HPLC; indicates the hydrophobicity of the peptides) [1]: 43.06 min
